# Measurements: US20070225278A1, “Methods for treating cognitive and other disorders” (priority 2006, published 2007)
# Assays:
# [1] = Antidepressant-like effects (MED), Table 2; format: in vivo; conditions: minimal effective dose
# Description: Table 2, below, summarizes the dose at which antidepressant-like effects are observed, the dose at which sexual dysfunction occurs, and the therapeutic window.
# [2] = system: male Sprague Dawley CD rats; experiment: Baseline PPI, compound administered alone; format: in vivo, rat; conditions: dose range that attenuates d-amphetamine and DOI deficits
# Description: Inter-trial intervals averaged 15 s.
# [3] = system: male Sprague Dawley CD rats; experiment: Reversal of MK-801 induced deficits in PPI; conditions: 3-30 mg/kg IP, MK-801 0.15 mg/kg SC
# [4] = system: male Sprague Dawley CD rats; experiment: Reversal of DOI induced deficits in PPI; conditions: significant at 17 mg/kg IP (3-30 mg/kg tested); DOI 3 mg/kg IP
# [5] = system: extracellular glutamate levels in the rat mPFC; experiment: In vivo microdialysis, glutamate in medial prefrontal cortex; conditions: 17 mg/kg s.c., acute
# Protocol: (§1) Animals: Adult male Sprague-Dawley rats (Charles River, Wilmington, Mass.) weighing 280-350 g at the time of surgery were used for all microdialysis experiments. Adult male Long-Evans rats (Charles River, Wilmington, Mass.) weighing 180-220 g were used for NOR studies. Rats were housed individually for recognition memory studies. All animals had free access to food and water and were group housed in the AAALAC-accredited facility that was maintained on a 12 h light dark cycle (lights on at 0600 h) for at least 1 week prior to surgery or behavioral testing. All in vivo studies were performed in accordance to the ‘Guide for the Care and Use of Laboratory Animals’ as adopted and promulgated by the National Institutes of Health (Pub. 85-23, 1985).
# Stereotaxic Surgery Following induction of anesthesia with 3% halothane (Fluothane; Zeneca, Cheshire, UK), animals were secured in a stereotaxic frame with ear and incisor bars (David Kopf, Tujunga, Calif.). Anesthesia was maintained by continuous administration of halothane (1-2%) while a microdialysis guide cannula (CMA/12, CMA Microdialysis, Stockholm, Sweden) was implanted above the medial prefrontal cortex (AP: 3.2 mm ML: −0.6 mm DV: −3.8 mm). […]
# Dialysate (10 μL) f was collected and analyzed for extracellular glutamate concentrations. […]
# [6] = system: male Long-Evans rats; experiment: Novel object recognition (NOR); format: in vivo, rat
# Protocol: as §1, with “All in vivo studies were performed in accordance to the ‘Guide for the Care and Use of Laboratory Animals’ as adopted and promulgated by the National Institutes of Health (Pub. 85-23, 1985).” left out
# Novel object recognition (NOR) training and testing was performed in a circular field (diameter ˜70 cm, 30 cm high) constructed out of plastic and containing bedding. […] Animal performance was tracked by video and monitored by an experimenter located outside of the testing room. […]
# The visual recognition task was divided into 3 sessions—habituation, a sample trial and a choice trial. […] The amount of time exploring the objects was recorded for the entire trial. […]
# The effect of treatment on object exploration during the sample trial was examined using a one-way ANOVA on total contact time followed by Fisher's LSD group mean pairwise comparisons. The amount of time exploring the novel and familiar objects across treatment groups was analyzed using a repeated measures ANOVA followed by Fisher's LSD post hoc comparisons. […]
smiles,measurement,setting,value
c1cc2c3c(c1)[C@H]1CCC[C@H]1N3CCNC2 [Compound 1],Antidepressant-like effects (MED mg/kg),[1],0.3 mg/kg
same,effect on baseline PPI when administered alone,[2],no effect
same,reduction of the increase in startle produced by MK-801,[3]; all doses tested,did significantly reduce
same,attenuation of MK-801 induced disruption in gating (PPI),[3]; any dose tested,did not show an ability to significantly attenuate
same,attenuation of DOI induced disruption in gating (PPI),[4],significantly attenuated
same,glutamate levels compared to vehicle-treated animals,[5],210%
same,effect on exploration during the sample trial,[6]; 1 mg/kg orally,No significant effect
same,exploration of novel vs familiar object in choice trial (retention),"[6]; 1 mg/kg orally 60 minutes prior to sample trial, 48 hour retention interval",significantly greater time spent exploring the novel than the familiar object
